Literature values, collected in US20210360917A1, “CUTICLE SUPPLEMENT FOR PLANT PRODUCTION” (OREGON STATE UNIVERSITY, priority 2018, published 2021).

Tested on: spotted wing Drosophila
Conditions: chemical alternative, source not given

## CCOC(=O)CC(SP(=S)(OC)OC)C(=O)OCC (stereo not shown) [malathion]
  reduction of egg laying: about 50%
